Data on ten molecules can be found in article PMC8537277 (Pharmaceuticals, 2021).

Values joined by “and” are separate entries in the source; they are usually repeats but may differ in a detail not shown here. Equal values may be shown once. Read-outs that look alike come from different tables or passages of the source. Where a SMILES comes first, the peptide text is derived from it. A value given as a limit tells only on which side of the number the result lay.

A short description of data set [1]: Cytotoxicity assay. Particulars: dog, MDCK cells. It counts as cell-based, canine. How it is done: This procedure was performed as reported elsewhere. Briefly, two-fold serial dilutions of each peptide in culture medium were incubated at 37 °C with confluent MDCK cells grown in 96-well tissue culture microplates (Nalge Nunc Europe Ltd., Neerijse, Belgium). After 24 h, the following parameters were evaluated: cell morphology, which was examined by light microscopy; cell viability, which was determined by neutral red staining as already described by us; and cell proliferation, which was evaluated quantitatively by microscopic counts after dispersion into individual cells with trypsin.

Data set [2] has as its system A/Roma-ISS/02/08 H1N1 oseltamivir-sensitive virus. Particulars: reference peptides; ref Scala et al. (2017) [14]; read-out: HI Titer (IC50) A/Roma-ISS/02/08 H1N1; cited from earlier work.
Data set [3] deals with A/Parma/05/06 H3N2. Also on record: method as in Scala et al. (2017) [14]. Particulars: reference peptides; ref Scala et al. (2017) [14]; read-out: HI Titer (IC50) A/Parma/05/06 H3N2; cited from earlier work.
Data set [4] deals with A/Roma-ISS/02/08 H1N1. Particulars: MDCK cells; ref Scala et al. (2017) [14]; cited from earlier work.
Data set [5] has as its system A/Parma/05/06 H3N2. Conditions: MDCK cells; ref Scala et al. (2017) [14]; cited from earlier work.
For data set [6], the system named is A/Parma/24/09 H1N1. Particulars: MDCK cells; ref Scala et al. (2017) [14]; cited from earlier work.
Data set [7] addresses HA (H1N1 hemagglutinin, Cat No.: Z03181, GenScript). Conditions: read-out: MST KD.
Data set [8] addresses HA (H1N1 hemagglutinin, Cat No: Z03181, GenScript). Conditions: read-out: SPR KD.
The test system of data set [9] is A/Roma-ISS/02/08 H1N1 oseltamivir-sensitive virus. Particulars: A/Roma-ISS/02/08 oseltamivir-sensitive virus, 1 h.
The test system of data set [10] is A/Parma/05/06 H3N2. Conditions: A/Parma/05/06, 1 h.

The molecule `CC(=O)N[C@@H](CO)C(=O)N[C@@H](CCCCN)C(=O)N[C@@H](Cc1c[nH]cn1)C(=O)N[C@@H](CO)C(N)=O` [Peptide 1, Ac-SKHS-NH2] (Ac-SKHS-NH2) came in with a CC50 at 24 h in [1] of more than 25000 nM. Besides, the IC50 is 0.1 nM in [2] and 12 nM in [3]. The EC50 in [4] was 0.003 nM; in data set [5], 0.005 nM.
For the molecule `CC(=O)N[C@@H](CO)C(=O)N[C@@H](CC(C)C)C(=O)N[C@@H](CC(=O)O)C(=O)N[C@@H](CS)C(N)=O` [Peptide 2, Ac-SLDC-NH2] (Ac-SLDC-NH2), the IC50 in [3] was 1.5 nM. The figures for the concentration for a half-maximal effect (EC50) in data set [6] and in [5] were 0.0046 nM and 0.0043 nM, respectively.
Take `CC(=O)N[C@@H](C)C(=O)N[C@@H](CCCCN)C(=O)N[C@@H](Cc1c[nH]cn1)C(=O)N[C@@H](CO)C(N)=O` [Peptide 3] (Ac-AKHS-NH2): the Kd in data set [7] came out at 3120 ± 110 nM; in data set [8] it was 2700 ± 40 nM. The IC50 in data set [9] came out at 0.6 nM; in data set [10], 12 nM.
In [1], `CC(=O)N[C@@H](CO)C(=O)N[C@@H](C)C(=O)N[C@@H](Cc1c[nH]cn1)C(=O)N[C@@H](CO)C(N)=O` [Peptide 4, Ac-SAHS-NH2] (Ac-SAHS-NH2) returned a half-maximal cytotoxic concentration (CC50) at 24 h of more than 25000 nM. Besides, the Kd was 8.22 nM and 8.2 nM in data set [7]; 3.57 ± 0.12 nM in data set [8].
`CC(=O)N[C@@H](CO)C(=O)N[C@@H](CCCCN)C(=O)N[C@@H](C)C(=O)N[C@@H](CO)C(N)=O` [Peptide 5] (Ac-SKAS-NH2): the Kd in data set [7] came to 7010 ± 90 nM; in data set [8] it was 1030 ± 10 nM.
The matching figures for `CC(=O)N[C@@H](CO)C(=O)N[C@@H](CCCCN)C(=O)N[C@@H](Cc1c[nH]cn1)C(=O)N[C@@H](C)C(N)=O` [Peptide 6] (Ac-SKHA-NH2): 11400 ± 170 nM and 6750 ± 810 nM.
Turning to `CC(=O)N[C@@H](C)C(=O)N[C@@H](CC(C)C)C(=O)N[C@@H](CC(=O)O)C(=O)N[C@@H](CS)C(N)=O` [Peptide 7] (Ac-ALDC-NH2), the Kd turned out to be 21200 ± 410 nM in data set [7] and 27.7 ± 1.7 nM in data set [8].
In the case of `CC(=O)N[C@@H](CO)C(=O)N[C@@H](C)C(=O)N[C@@H](CC(=O)O)C(=O)N[C@@H](CS)C(N)=O` [Peptide 8] (Ac-SADC-NH2), the dissociation constant (Kd) in [7] worked out at 6380 ± 210 nM; in data set [8], 2190 ± 510 nM.
Regarding `CC(=O)N[C@@H](CO)C(=O)N[C@@H](CC(C)C)C(=O)N[C@@H](C)C(=O)N[C@@H](CS)C(N)=O` [Peptide 9] (Ac-SLAC-NH2), the dissociation constant (Kd) in data set [7] was 5.8 ± 0.3 nM; in data set [8], 2570 ± 340 nM.
Take `CC(=O)N[C@@H](CO)C(=O)N[C@@H](CC(C)C)C(=O)N[C@@H](CC(=O)O)C(=O)N[C@@H](C)C(N)=O` [Peptide 10] (Ac-SLDA-NH2): the Kd in [7] stood at 2690 ± 90 nM; in [8], 343 ± 19 nM. The molecule further yielded an IC50 in data set [10] of 0.0021 nM.
